What all share (assay type): cell-based
Experiment [1] has as its system Aspergillus fumigatus (ND158). The experiment in a line: Microbroth susceptibility testing, filamentous fungi (MEC). The note with it: strain ND158, minimum effective concentration. Here is the method:
Microbroth Susceptibility Testing Methods Filamentous fungi susceptibility testing procedure follows the NCCLS document M38-A (Reference Method for Broth Dilution Antifungal Susceptibility Testing of Filamentous Fungi; Approved Standard (ISBN 1-56238-470-8). NCCLS, 940 West Valley Road, Suite 1400 Wayne, Pa. 19087-1898 USA, 2002) with the following modifications: 1. The final test volume was 100 μl and not 200 μl as stipulated. 2. The end point used to assess the in vitro activity of glucan synthase inhibitors may require microscopic evaluation of cell morphology in the test wells (Kurtz et al., Antimicrobial Agents and Chemotherapy, 38, 1480-1489, 1994; […] et al., Antimicrobial Agents and Chemotherapy, 45, 327-330, 2001).
(In broth dilution the organism is exposed to a series of concentrations in liquid medium.)

The subject of the next experiment is Candida albicans (C693). The experiment in a line: Microbroth susceptibility testing, yeast (MIC). The note with it: strain C693. Here is the method:
(§1) Microbroth Susceptibility Testing Methods
(§2) Yeast susceptibility testing procedure followed the NCCLS document M27-A2 (Reference Method for Broth Dilution Antifungal Susceptibility Testing of Yeasts; Approved Standard-Second Edition (ISBN 1-56238-469-4). NCCLS, 940 West Valley Road, Suite 1400 Wayne, Pa. 19087-1898 USA, 2002) with the following modifications:
(§3) 1. The final test volume was 100 μl and not 200 μl as stipulated. 2. For testing Saccharomyces cerevisiae strain PM503 YPD was used in place of RPMI 1640 broth.

Another experiment relates to Candida albicans (C697). The experiment in a line: Microbroth susceptibility testing, yeast (MIC). The note with it: strain C697. Here is the method:
as §1, §2, §3

The next experiment concerns Candida glabrata (C624). The experiment in a line: Microbroth susceptibility testing, yeast (MIC). The settings on record: Nakaseomyces glabratus; strain C624. The method, then:
as §1, §2, §3

For experiment [2], the system named is Saccharomyces cerevisiae (C51). The experiment is described as follows: Microbroth susceptibility testing, yeast (MIC). The settings on record: read-out: MIC Saccharomyces cerevisiae (C51). The method, then: as §1, §2, §3

Values after ≈ are worked out from the molar mass of the structure shown.

The record followed here is patent US20100158992A1, “PIPERAZINE-SUBSTITUTED PYRIDAZINONE DERIVATIVES USEFUL AS GLUCAN SYNTHASE INHIBITORS” (Schering Corporation, priority 2007, published 2010).

Usually minimal effective concentration stands for the smallest amount tested that counted as effective. High values mean weaker potency, low ones greater potency. By MIC is commonly meant the lowest concentration found to suppress growth.

Turning to `O=c1c(SCc2ccccc2)c(N2CCN(Cc3cc(O)cc(O)c3)CC2)cnn1-c1ccccc1` [compound 1], the minimal effective concentration in experiment [1] lay in the range of 5 to 50 µg/mL. For the same compound, the MIC against Candida albicans (C693) is 5 to 50 µg/mL (≈ 9.99 to 99.9 µM); against Candida albicans (C697), 5 to 50 µg/mL (≈ 9.99 to 99.9 µM); against Candida glabrata (C624), 1 to 5 µg/mL (≈ 2 to 9.99 µM); in experiment [2], 5 to 50 µg/mL (≈ 9.99 to 99.9 µM).

As to `Cc1cccc(CN2CCN(c3cnn(-c4ccccc4)c(=O)c3SC(C)C)CC2)c1` [compound 9], in experiment [1], the minimal effective concentration lay in the range of 5 to 50 µg/mL. In addition, the MIC was 5 to 50 µg/mL (≈ 11.5 to 115 µM) against Candida albicans (C693), 5 to 50 µg/mL (≈ 11.5 to 115 µM) in the experiment on Candida albicans (C697), 0.5 to 1 µg/mL (≈ 1.15 to 2.3 µM) with Candida glabrata (C624) and 0.5 to 1 µg/mL (≈ 1.15 to 2.3 µM) in experiment [2].

In turn, `Cc1nc[nH]c1CN1CCN(c2cnn(-c3ccccc3)c(=O)c2SCc2ccccc2)CC1` [compound 17] yielded a minimal effective concentration in experiment [1] of 5 to 50 µg/mL. The MIC (with Candida albicans (C693); with Candida albicans (C697); in the experiment on Candida glabrata (C624); in experiment [2]) was 5 to 50 µg/mL (≈ 10.6 to 106 µM) each time.

On to `COc1ccc(Sc2c(N3CCN(S(=O)(=O)c4cccs4)CC3)cnn(-c3ccccc3)c2=O)cc1` [compound 66], for which the minimal effective concentration in experiment [1] fell in the range of 1 to 5 µg/mL. Moreover, the MIC with Candida albicans (C693) lay within 5 to 50 µg/mL (≈ 9.25 to 92.5 µM); with Candida albicans (C697), 5 to 50 µg/mL (≈ 9.25 to 92.5 µM); against Candida glabrata (C624) it was 0.5 to 1 µg/mL (≈ 0.925 to 1.85 µM); in experiment [2], 1 to 5 µg/mL (≈ 1.85 to 9.25 µM).

In experiment [1], `O=c1c(SCc2ccccc2)c(N2CCN(S(=O)(=O)c3ccccc3[N+](=O)[O-])CC2)cnn1-c1ccccc1` [compound 67] registered a minimal effective concentration of 5 to 50 µg/mL. The MIC was 5 to 50 µg/mL (≈ 8.87 to 88.7 µM) in the experiment on Candida albicans (C693), 5 to 50 µg/mL (≈ 8.87 to 88.7 µM) against Candida albicans (C697), 1 to 5 µg/mL (≈ 1.77 to 8.87 µM) against Candida glabrata (C624) and 5 to 50 µg/mL (≈ 8.87 to 88.7 µM) in experiment [2].

Regarding `COc1ccc(Sc2c(N3CCN(S(=O)(=O)c4ccccc4)CC3)cnn(-c3ccccc3)c2=O)cc1` [compound 74], the minimal effective concentration in experiment [1] is 1 to 5 µg/mL. In addition, the MIC is 5 to 50 µg/mL (≈ 9.35 to 93.5 µM) against Candida albicans (C693), 1 to 5 µg/mL (≈ 1.87 to 9.35 µM) against Candida albicans (C697), 0.5 to 1 µg/mL (≈ 0.935 to 1.87 µM) against Candida glabrata (C624) and 1 to 5 µg/mL (≈ 1.87 to 9.35 µM) in experiment [2].

With `CCOC(=O)C1CCCN(c2c(N3CCN(C(=O)c4c[nH]c5ccccc45)CC3)cnn(-c3ccccc3)c2=O)C1` (stereo not shown) [compound 114], in experiment [1], the minimal effective concentration lay in the range of 5 to 50 µg/mL. Besides, the MIC (with Candida albicans (C693); against Candida albicans (C697); in the experiment with Candida glabrata (C624); in experiment [2]) was 5 to 50 µg/mL (≈ 9.01 to 90.1 µM) throughout.

With `CCOC(=O)C1CCCN(c2c(N3CCN(C(=O)CSc4nccc(C)n4)CC3)cnn(-c3ccccc3)c2=O)C1` (stereo not shown) [compound 130], in experiment [1], the minimal effective concentration lay in the range of 5 to 50 µg/mL. Moreover, the MIC with Candida albicans (C693) was 5 to 50 µg/mL (≈ 8.65 to 86.5 µM); against Candida albicans (C697), 5 to 50 µg/mL (≈ 8.65 to 86.5 µM); against Candida glabrata (C624), 1 to 5 µg/mL (≈ 1.73 to 8.65 µM); in experiment [2], 5 to 50 µg/mL (≈ 8.65 to 86.5 µM).

In turn, `CCOC(=O)C1CCCN(c2c(N3CCN(C(=O)c4ccc5[nH]cnc5c4)CC3)cnn(-c3ccccc3)c2=O)C1` (stereo not shown) [compound 136] came in with a minimal effective concentration in experiment [1] of 5 to 50 µg/mL. The MIC (against Candida albicans (C693); in the experiment on Candida albicans (C697); with Candida glabrata (C624); in experiment [2]) was 5 to 50 µg/mL (≈ 9 to 90 µM) in each case.

Turning to `CCOC(=O)C1CCCN(c2c(N3CCN(S(=O)(=O)c4c(F)cccc4F)CC3)cnn(-c3ccccc3)c2=O)C1` (stereo not shown) [compound 236], the minimal effective concentration in experiment [1] lay in the range of 1 to 5 µg/mL. Also, the MIC with Candida albicans (C693) lay within 1 to 5 µg/mL (≈ 1.7 to 8.51 µM); against Candida albicans (C697) it was 1 to 5 µg/mL (≈ 1.7 to 8.51 µM); against Candida glabrata (C624) it was 0.5 to 1 µg/mL (≈ 0.851 to 1.7 µM); in experiment [2], 1 to 5 µg/mL (≈ 1.7 to 8.51 µM).

Compound `O=c1c(N2CCOCC2)c(N2CCN(S(=O)(=O)Cc3ccccc3)CC2)cnn1-c1ccccc1` [compound 253] showed a minimal effective concentration in experiment [1] of 5 to 50 µg/mL. The MIC against Candida albicans (C693) fell in the range of 5 to 50 µg/mL (≈ 10.1 to 101 µM); in the experiment on Candida albicans (C697), 1 to 5 µg/mL (≈ 2.02 to 10.1 µM); in the experiment with Candida glabrata (C624), 1 to 5 µg/mL (≈ 2.02 to 10.1 µM); in experiment [2], 1 to 5 µg/mL (≈ 2.02 to 10.1 µM).

For the compound `CC(C)OCCCNc1c(N2CCN(S(=O)(=O)Cc3ccccc3)CC2)cnn(-c2ccccc2)c1=O` [compound 254], in experiment [1], the minimal effective concentration lay within 5 to 50 µg/mL. Also, the MIC was 5 to 50 µg/mL (≈ 9.51 to 95.1 µM) against Candida albicans (C693), 5 to 50 µg/mL (≈ 9.51 to 95.1 µM) against Candida albicans (C697), 1 to 5 µg/mL (≈ 1.9 to 9.51 µM) against Candida glabrata (C624) and 1 to 5 µg/mL (≈ 1.9 to 9.51 µM) in experiment [2].

Consider `COc1ccc(CCOc2c(N3CCN(Cc4ccccc4O)CC3)cnn(-c3ccccc3)c2=O)cc1` [compound 316], for which, in experiment [1], the minimal effective concentration lay within 1 to 5 µg/mL. For the same compound, the MIC fell in the range of 5 to 50 µg/mL (≈ 9.75 to 97.5 µM) in the experiment with Candida albicans (C693), 5 to 50 µg/mL (≈ 9.75 to 97.5 µM) in the experiment with Candida albicans (C697), 5 to 50 µg/mL (≈ 9.75 to 97.5 µM) against Candida glabrata (C624) and 0.5 to 1 µg/mL (≈ 0.975 to 1.95 µM) in experiment [2].

For the compound `O=c1c(OCc2ccccc2)c(N2CCN(Cc3c(Cl)cccc3Cl)CC2)cnn1-c1ccccc1` [compound 339], the minimal effective concentration in experiment [1] lay within 1 to 5 µg/mL. For the same compound, the MIC with Candida albicans (C693) lay within 5 to 50 µg/mL (≈ 9.59 to 95.9 µM); in the experiment with Candida albicans (C697), 1 to 5 µg/mL (≈ 1.92 to 9.59 µM); in the experiment with Candida glabrata (C624) it was 1 to 5 µg/mL (≈ 1.92 to 9.59 µM); in experiment [2], 1 to 5 µg/mL (≈ 1.92 to 9.59 µM).

As to `O=c1c(OC2Cc3ccccc3C2)c(N2CCN(Cc3ccoc3)CC2)cnn1-c1ccccc1` [compound 343], the minimal effective concentration in experiment [1] was 0.5 to 1 µg/mL. The MIC against Candida albicans (C693) was 5 to 50 µg/mL (≈ 10.7 to 107 µM); with Candida albicans (C697) it was 1 to 5 µg/mL (≈ 2.13 to 10.7 µM); against Candida glabrata (C624), 1 to 5 µg/mL (≈ 2.13 to 10.7 µM); in experiment [2], < 0.5 µg/mL.

Take `O=c1c(OCCC2CCCCC2)c(N2CCN(Cc3cccc(O)c3)CC2)cnn1-c1ccccc1` [compound 373]: in experiment [1], the minimal effective concentration lay within 5 to 50 µg/mL. Moreover, the MIC against Candida albicans (C693) lay in the range of 5 to 50 µg/mL (≈ 10.2 to 102 µM); with Candida albicans (C697) it was 1 to 5 µg/mL (≈ 2.05 to 10.2 µM); in the experiment with Candida glabrata (C624), 1 to 5 µg/mL (≈ 2.05 to 10.2 µM); in experiment [2], 0.5 to 1 µg/mL (≈ 1.02 to 2.05 µM).

In experiment [1], `O=c1c(OC2Cc3ccccc3C2)c(N2CCN(Cc3cccs3)CC2)cnn1-c1ccccc1` [compound 428] showed a minimal effective concentration of 1 to 5 µg/mL. The MIC against Candida albicans (C693) was 5 to 50 µg/mL (≈ 10.3 to 103 µM); against Candida albicans (C697), 1 to 5 µg/mL (≈ 2.06 to 10.3 µM); in the experiment with Candida glabrata (C624) it was 5 to 50 µg/mL (≈ 10.3 to 103 µM); in experiment [2] it was 0.5 to 1 µg/mL (≈ 1.03 to 2.06 µM).
